Measured values from PubChem BioAssay (NCI).
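Following 48 hours of exposure in 96-well plates, responses at five concentrations were used to interpolate endpoints linearly. TGI: concentration producing complete growth inhibition.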

Tests used:
Experiment in all cases: inhibition of tumour cell growth, NCI panel, 48 h
HL-60(TB) leukemia = tested on: HL-60(TB) leukemia
NCI-H522 lung = tested on: NCI-H522 lung
SK-MEL-28 melanoma = tested on: SK-MEL-28 melanoma
HOP-18 NSCLC = tested on: HOP-18 NSCLC
SF-539 CNS = tested on: SF-539 CNS
HCT-116 colon = tested on: HCT-116 colon
LXFL 529 NSCLC = tested on: LXFL 529 NSCLC
HCT-15 colon = tested on: HCT-15 colon
U251 CNS = tested on: U251 CNS
EKVX NSCLC = tested on: EKVX NSCLC
CAKI-1 renal = tested on: CAKI-1 renal
RXF-631 renal = tested on: RXF-631 renal
KM20L2 colon = tested on: KM20L2 colon
RXF 393 renal = tested on: RXF 393 renal
RPMI-8226 leukemia = tested on: RPMI-8226 leukemia
IGROV1 ovarian = tested on: IGROV1 ovarian
K-562 leukemia = tested on: K-562 leukemia
NCI-H226 lung = tested on: NCI-H226 lung
HOP-92 NSCLC = tested on: HOP-92 NSCLC
A498 renal = tested on: A498 renal
DMS 273 small cell lung = tested on: DMS 273 small cell lung
SF-268 CNS = tested on: SF-268 CNS
SNB-19 CNS = tested on: SNB-19 CNS
MOLT-4 leukemia = tested on: MOLT-4 leukemia
786-0 renal = tested on: 786-0 renal
UACC-62 melanoma = tested on: UACC-62 melanoma
CCRF-CEM leukemia = tested on: CCRF-CEM leukemia
DLD-1 colon = tested on: DLD-1 colon
SN12C renal = tested on: SN12C renal
SW-620 colon = tested on: SW-620 colon
SK-OV-3 ovarian = tested on: SK-OV-3 ovarian
SF-295 CNS = tested on: SF-295 CNS
M14 melanoma = tested on: M14 melanoma
NCI-H23 lung = tested on: NCI-H23 lung
COLO 205 colon = tested on: COLO 205 colon
UO-31 renal = tested on: UO-31 renal
DMS 114 small cell lung = tested on: DMS 114 small cell lung
M19-MEL melanoma = tested on: M19-MEL melanoma
OVCAR-5 ovarian = tested on: OVCAR-5 ovarian
SNB-75 CNS = tested on: SNB-75 CNS
HOP-62 NSCLC = tested on: HOP-62 NSCLC
KM12 colon = tested on: KM12 colon
UACC-257 melanoma = tested on: UACC-257 melanoma
LOX IMVI melanoma = tested on: LOX IMVI melanoma
SK-MEL-2 melanoma = tested on: SK-MEL-2 melanoma
NCI-H460 lung = tested on: NCI-H460 lung
HCC-2998 colon = tested on: HCC-2998 colon
TK-10 renal = tested on: TK-10 renal
HT29 colon = tested on: HT29 colon
SK-MEL-5 melanoma = tested on: SK-MEL-5 melanoma
OVCAR-4 ovarian = tested on: OVCAR-4 ovarian
SR leukemia = tested on: SR leukemia
A549 NSCLC = tested on: A549 NSCLC
OVCAR-3 ovarian = tested on: OVCAR-3 ovarian
OVCAR-8 ovarian = tested on: OVCAR-8 ovarian
ACHN renal = tested on: ACHN renal
MALME-3M melanoma = tested on: MALME-3M melanoma
SNB-78 CNS = tested on: SNB-78 CNS

For CCN(C(=N)C#N)c1ccccc1, the TGI (HL-60(TB) leukemia) was > 70.2 µM, the TGI (NCI-H522 lung) was > 100 µM and the TGI (SK-MEL-28 melanoma) was > 100 µM. The TGI (HOP-18 NSCLC) was > 100 µM, the TGI (SF-539 CNS) was 27.6 µM and the TGI (HCT-116 colon) was > 100 µM. The TGI (LXFL 529 NSCLC) was > 100 µM, the TGI (HCT-15 colon) was > 69.2 µM and the TGI (U251 CNS) was > 100 µM. For the same compound, the TGI (EKVX NSCLC) was > 100 µM, the TGI (CAKI-1 renal) was > 100 µM and the TGI (RXF-631 renal) was > 100 µM. The TGI (KM20L2 colon) was > 100 µM, the TGI (RXF 393 renal) was > 100 µM and the TGI (RPMI-8226 leukemia) was > 100 µM. The TGI (IGROV1 ovarian) was > 100 µM, the TGI (K-562 leukemia) was > 100 µM and the TGI (NCI-H226 lung) was > 100 µM. The TGI (HOP-92 NSCLC) was > 100 µM, the TGI (A498 renal) was > 100 µM and the TGI (DMS 273 small cell lung) was > 58.3 µM. The TGI (SF-268 CNS) was > 100 µM, the TGI (SNB-19 CNS) was > 100 µM and the TGI (MOLT-4 leukemia) was > 100 µM. The TGI (786-0 renal) was > 60.3 µM, the TGI (UACC-62 melanoma) was > 100 µM and the TGI (CCRF-CEM leukemia) was > 85.1 µM. The TGI (DLD-1 colon) was > 65.6 µM, the TGI (SN12C renal) was > 100 µM and the TGI (SW-620 colon) was > 49.8 µM. The TGI (SK-OV-3 ovarian) was > 100 µM, the TGI (SF-295 CNS) was > 100 µM and the TGI (M14 melanoma) was > 100 µM. For the same compound, the TGI (NCI-H23 lung) was > 100 µM, the TGI (COLO 205 colon) was > 100 µM and the TGI (UO-31 renal) was > 100 µM. The TGI (DMS 114 small cell lung) was > 88.2 µM, the TGI (M19-MEL melanoma) was > 95.4 µM and the TGI (OVCAR-5 ovarian) was > 100 µM. For the same compound, the TGI (SNB-75 CNS) was > 100 µM, the TGI (HOP-62 NSCLC) was > 100 µM and the TGI (KM12 colon) was > 100 µM. The TGI (UACC-257 melanoma) was > 100 µM, the TGI (LOX IMVI melanoma) was > 100 µM and the TGI (SK-MEL-2 melanoma) was > 100 µM. For the same compound, the TGI (NCI-H460 lung) was > 100 µM, the TGI (HCC-2998 colon) was > 100 µM and the TGI (TK-10 renal) was > 100 µM. The TGI (HT29 colon) was > 100 µM, the TGI (SK-MEL-5 melanoma) was > 100 µM and the TGI (OVCAR-4 ovarian) was > 100 µM. The TGI (SR leukemia) was > 100 µM, the TGI (A549 NSCLC) was > 100 µM and the TGI (OVCAR-3 ovarian) was > 100 µM. For the same compound, the TGI (OVCAR-8 ovarian) was > 100 µM, the TGI (ACHN renal) was > 100 µM and the TGI (MALME-3M melanoma) was > 100 µM.

O=C(NO)C(=O)Nc1cc(Cl)ccc1Cl was tested, and the TGI (HL-60(TB) leukemia) was > 100 µM, the TGI (NCI-H522 lung) was 49.1 µM and the TGI (SK-MEL-28 melanoma) was > 100 µM. The TGI (HOP-18 NSCLC) was > 100 µM, the TGI (SF-539 CNS) was > 100 µM and the TGI (HCT-116 colon) was > 100 µM. The TGI (LXFL 529 NSCLC) was > 100 µM, the TGI (HCT-15 colon) was > 100 µM and the TGI (U251 CNS) was > 100 µM. The TGI (EKVX NSCLC) was > 100 µM, the TGI (CAKI-1 renal) was > 100 µM and the TGI (RXF-631 renal) was > 100 µM. For the same compound, the TGI (KM20L2 colon) was > 100 µM, the TGI (RXF 393 renal) was > 100 µM and the TGI (RPMI-8226 leukemia) was > 100 µM. For the same compound, the TGI (IGROV1 ovarian) was 55.3 µM, the TGI (K-562 leukemia) was > 100 µM and the TGI (NCI-H226 lung) was > 100 µM. For the same compound, the TGI (HOP-92 NSCLC) was > 100 µM, the TGI (A498 renal) was > 100 µM and the TGI (DMS 273 small cell lung) was > 100 µM. The TGI (SF-268 CNS) was > 100 µM, the TGI (SNB-19 CNS) was > 100 µM and the TGI (MOLT-4 leukemia) was > 100 µM. For the same compound, the TGI (786-0 renal) was > 100 µM, the TGI (UACC-62 melanoma) was > 100 µM and the TGI (CCRF-CEM leukemia) was > 100 µM. The TGI (DLD-1 colon) was > 100 µM, the TGI (SN12C renal) was > 100 µM and the TGI (SW-620 colon) was > 100 µM. For the same compound, the TGI (SK-OV-3 ovarian) was > 100 µM, the TGI (SF-295 CNS) was > 100 µM and the TGI (M14 melanoma) was > 100 µM. For the same compound, the TGI (NCI-H23 lung) was > 100 µM, the TGI (COLO 205 colon) was > 100 µM and the TGI (UO-31 renal) was 51 µM. For the same compound, the TGI (DMS 114 small cell lung) was > 100 µM, the TGI (M19-MEL melanoma) was > 100 µM and the TGI (OVCAR-5 ovarian) was > 100 µM. For the same compound, the TGI (SNB-75 CNS) was > 100 µM, the TGI (SNB-78 CNS) was > 100 µM and the TGI (HOP-62 NSCLC) was > 100 µM. The TGI (KM12 colon) was > 100 µM, the TGI (UACC-257 melanoma) was > 100 µM and the TGI (LOX IMVI melanoma) was > 100 µM. For the same compound, the TGI (SK-MEL-2 melanoma) was > 100 µM, the TGI (NCI-H460 lung) was > 100 µM and the TGI (HCC-2998 colon) was > 100 µM. For the same compound, the TGI (TK-10 renal) was > 100 µM, the TGI (HT29 colon) was > 100 µM and the TGI (SK-MEL-5 melanoma) was > 100 µM. For the same compound, the TGI (OVCAR-4 ovarian) was > 100 µM, the TGI (SR leukemia) was > 100 µM and the TGI (A549 NSCLC) was > 100 µM. For the same compound, the TGI (OVCAR-3 ovarian) was > 100 µM, the TGI (OVCAR-8 ovarian) was > 100 µM and the TGI (ACHN renal) was > 100 µM. For the same compound, the TGI (MALME-3M melanoma) was > 100 µM.

For O=C1[C@@H]2C(c3cccc([N+](=O)[O-])c3)=NO[C@@H]2C(=O)N1c1ccc(Cc2ccc(N3C(=O)[C@H]4C(c5cccc([N+](=O)[O-])c5)=NO[C@H]4C3=O)cc2)cc1, the TGI (NCI-H522 lung) was > 100 µM, the TGI (SK-MEL-28 melanoma) was > 100 µM and the TGI (HOP-18 NSCLC) was > 100 µM. For the same compound, the TGI (SF-539 CNS) was > 100 µM, the TGI (HCT-116 colon) was > 100 µM and the TGI (LXFL 529 NSCLC) was > 100 µM. For the same compound, the TGI (HCT-15 colon) was > 100 µM, the TGI (CAKI-1 renal) was > 100 µM and the TGI (RXF-631 renal) was > 100 µM. The TGI (KM20L2 colon) was > 100 µM, the TGI (RXF 393 renal) was > 100 µM and the TGI (RPMI-8226 leukemia) was > 100 µM. The TGI (IGROV1 ovarian) was > 100 µM, the TGI (K-562 leukemia) was > 100 µM and the TGI (HOP-92 NSCLC) was > 100 µM. The TGI (DMS 273 small cell lung) was > 100 µM, the TGI (MOLT-4 leukemia) was > 100 µM and the TGI (786-0 renal) was > 100 µM. For the same compound, the TGI (UACC-62 melanoma) was > 100 µM, the TGI (CCRF-CEM leukemia) was > 100 µM and the TGI (DLD-1 colon) was > 100 µM. The TGI (SN12C renal) was > 100 µM, the TGI (SW-620 colon) was > 100 µM and the TGI (M14 melanoma) was > 100 µM. For the same compound, the TGI (COLO 205 colon) was > 100 µM, the TGI (UO-31 renal) was > 100 µM and the TGI (DMS 114 small cell lung) was > 100 µM. The TGI (M19-MEL melanoma) was > 100 µM, the TGI (OVCAR-5 ovarian) was > 100 µM and the TGI (SNB-75 CNS) was > 100 µM. For the same compound, the TGI (SNB-78 CNS) was > 100 µM, the TGI (HOP-62 NSCLC) was > 100 µM and the TGI (UACC-257 melanoma) was > 100 µM. For the same compound, the TGI (SK-MEL-2 melanoma) was > 100 µM, the TGI (NCI-H460 lung) was > 100 µM and the TGI (TK-10 renal) was > 100 µM. The TGI (HT29 colon) was > 100 µM, the TGI (OVCAR-4 ovarian) was > 100 µM and the TGI (SR leukemia) was > 100 µM. The TGI (OVCAR-3 ovarian) was > 100 µM, the TGI (ACHN renal) was > 100 µM and the TGI (MALME-3M melanoma) was > 100 µM.
